{"source": "patent US12681015B2", "about": "“Methods for predicting patient response to DMARDs” (Queen Mary University of London, priority 2019, dated 2026)", "key": {"[1]": {"system": "inflammatory arthritis in wild type (WT) mice", "assay": "K/BxN serum inflammatory arthritis in wild type mice treated with MTX", "format": "in vivo", "protocol": "(§1) Inflammatory arthritis was initiated in wild type (WT) and Alox15^−/− deficient mice by the administration of arthritogenic serum on days 0 and 2. […] Disease severity was assessed by measuring (A) disease activity using a 26-point clinical score (B) body weight and (C) paw edema. (D) Eight days post disease initiation joints were collected, leukocytes were liberated and the number of infiltrated leukocytes was determined using flow cytometry and fluorescently labelled antibodies. Results for A-C are mean±SEM and for D are percentage of vehicle n=7 mice per group. Results for D are representative of n=8 mice per group. Experiments were conducted on two distinct occasions. * p<0.05 vs Vehicle group for A-C using two-way ANOVA, for D using one-sample t test.\n(§2) Inflammatory arthritis was initiated in wild type (WT) and Alox15^−/− mice by injecting K/BxN serum via intraperitoneal injection on days 0 and 2. […] Blood and joints were collected on day 8 and the concentrations of inflammatory eicosanoids in (A) plasma and (B) joints were determined using LC-MS/MS profiling.\n(§3) Plasma was obtained from peripheral blood of healthy volunteers, patients and mouse following centrifugation at 1500×g for 10 min at room temperature. Paws were collected and immediately transferred to liquid nitrogen prior to homogenization in 1 ml ice cold MeOH and homogenized using a glass dounce. All samples for LC-MS/MS-based profiling were extracted using solid-phase extraction columns as in Walker, M. E., Souza, P. R., Colas, R. A. & Dalli, J. “13-Series resolvins mediate the leukocyte-platelet actions of atorvastatin and pravastatin in inflammatory arthritis.” FASEB J 31, 3636-3648 (2017), the contents of which are incorporated herein by reference. Prior to sample extraction, deuterated internal standards, representing each region in the chromatographic analysis (500 pg each) were added to facilitate quantification. Samples were kept at −20° C. for a minimum of 45 min to allow protein precipitation. Supernatants were subjected to solid phase extraction, methyl formate fraction collected, brought to dryness and suspended in phase (methanol/water, 1:1, vol/vol) for injection on a Shimadzu LC-20AD HPLC and a Shimadzu SIL-20AC autoinjector, paired with a QTrap 5500 or QTrap 6500 plus (Sciex). An Agilent Poroshell 120 EC-C18 column (100 mm×4.6 mm×2.7 μm) was kept at 50° C. and mediators eluted using a mobile phase consisting of methanol/water/acetic acid of 20:80:0.01 (vol/vol/vol) that was ramped to 50:50:0.01 (vol/vol/vol) over 0.5 min and then to 80:20:0.01 (vol/vol/vol) from 2 min to 11 min, maintained till 14.5 min and then rapidly ramped to 98:2:0.01 (vol/vol/vol) for the next 0.1 min. This was subsequently maintained at 98:2:0.01 (vol/vol/vol) for 5.4 min, and the flow rate was maintained at 0.5 ml/min. QTrap 5500 or QTrap 6500 plus were operated using a multiple reaction monitoring method as in Walker, M. E., Souza, P. R., Colas, R. A. & Dalli, J. “13-Series resolvins mediate the leukocyte-platelet actions of atorvastatin and pravastatin in inflammatory arthritis.” FASEB J 31, 3636-3648 (2017), the contents of which are incorporated herein by reference. […]"}, "[2]": {"system": "inflammatory arthritis in Alox15-/- mice", "assay": "K/BxN serum inflammatory arthritis in Alox15-/- mice treated with MTX", "format": "in vivo", "protocol": "as §1, §2, §3"}, "[3]": {"system": "SPM formation in human peripheral blood", "assay": "Human whole blood incubation with MTX, plasma SPM by LC-MS/MS lipid mediator profiling", "format": "cell-based", "conditions": "MTX 100 nM, 37° C., 45 min", "protocol": "Plasma was obtained by centrifugation and peripheral blood SPM concentrations were determined using LC-MS/MS based lipid mediator profiling. (A) OPLS-DA analysis of plasma SPM concentrations. Colored spherical areas display 95% confidence region of respective incubations. […] Results for A, B are representative of n=6 donors from three distinct experiments. […] Blood was then collected after 1 hour and SPM concentrations were determined using LC-MS/MS based lipid mediator profiling (D) oPLS-DA analysis of plasma SPM concentrations. Colored areas display 95% confidence region of respective incubations. […] Results are representative of n=4 mice per group and experiments were conducted on two distinct occasions.\nIncubations were quenched and SPM were identified and quantified using LC-MS/MS-based lipid mediator profiling. Results are mean±SEM. n=6 volunteers per group.\nPlasma was obtained from peripheral blood of healthy volunteers, patients and mouse following centrifugation at 1500×g for 10 min at room temperature. Paws were collected and immediately transferred to liquid nitrogen prior to homogenization in 1 ml ice cold MeOH and homogenized using a glass dounce. All samples for LC-MS/MS-based profiling were extracted using solid-phase extraction columns as in Walker, M. E., Souza, P. R., Colas, R. A. & Dalli, J. “13-Series resolvins mediate the leukocyte-platelet actions of atorvastatin and pravastatin in inflammatory arthritis.” FASEB J 31, 3636-3648 (2017), the contents of which are incorporated herein by reference. Prior to sample extraction, deuterated internal standards, representing each region in the chromatographic analysis (500 pg each) were added to facilitate quantification. Samples were kept at −20° C. for a minimum of 45 min to allow protein precipitation. Supernatants were subjected to solid phase extraction, methyl formate fraction collected, brought to dryness and suspended in phase (methanol/water, 1:1, vol/vol) for injection on a Shimadzu LC-20AD HPLC and a Shimadzu SIL-20AC autoinjector, paired with a QTrap 5500 or QTrap 6500 plus (Sciex). An Agilent Poroshell 120 EC-C18 column (100 mm×4.6 mm×2.7 μm) was kept at 50° C. and mediators eluted using a mobile phase consisting of methanol/water/acetic acid of 20:80:0.01 (vol/vol/vol) that was ramped to 50:50:0.01 (vol/vol/vol) over 0.5 min and then to 80:20:0.01 (vol/vol/vol) from 2 min to 11 min, maintained till 14.5 min and then rapidly ramped to 98:2:0.01 (vol/vol/vol) for the next 0.1 min. This was subsequently maintained at 98:2:0.01 (vol/vol/vol) for 5.4 min, and the flow rate was maintained at 0.5 ml/min. QTrap 5500 or QTrap 6500 plus were operated using a multiple reaction monitoring method as in Walker, M. E., Souza, P. R., Colas, R. A. & Dalli, J. “13-Series resolvins mediate the leukocyte-platelet actions of atorvastatin and pravastatin in inflammatory arthritis.” FASEB J 31, 3636-3648 (2017), the contents of which are incorporated herein by reference. Each lipid mediator was identified using established criteria including matching retention time to synthetic or authentic standards and at least 6 diagnostic ions (Walker, M. E., Souza, P. R., Colas, R. A. & Dalli, J. “13-Series resolvins mediate the leukocyte-platelet actions of atorvastatin and pravastatin in inflammatory arthritis.” FASEB J 31, 3636-3648 (2017), the contents of which are incorporated herein by reference)."}, "[4]": {"conditions": "MTX 25 mg/kg i.p. days 3, 5 and 7"}, "[5]": {"conditions": "Alox15-/- mice, MTX 25 mg/kg i.p. days 3, 5 and 7"}}, "note": "“Also recorded” adds a separate entry of the source."}
{"smiles": "CN(Cc1cnc2nc(N)nc(N)c2n1)c1ccc(C(=O)N[C@@H](CCC(=O)O)C(=O)O)cc1", "note": "[MTX, Methotrexate]", "values": [{"measurement": "paw edema", "setting": "[1]; [4]", "result": "decrease"}, {"measurement": "weight loss", "setting": "[1]; [4]", "result": "improvement"}, {"measurement": "clinical scores", "setting": "[1]; MTX 25 mg/kg i.p. days 3, 5 and 7, 26-point score", "result": "significant reduction"}, {"measurement": "number of eosinophils, neutrophils, monocytes and macrophages recruited to the joint", "setting": "[1]; day 8, flow cytometry", "result": "decrease"}, {"measurement": "inflammatory eicosanoid concentrations", "setting": "[1]; plasma and joints, day 8, LC-MS/MS", "result": "regulates; also recorded: reduction"}, {"measurement": "disease activity", "setting": "[2]; [5]", "result": "no longer regulated"}, {"measurement": "weight loss", "setting": "[2]; [5]", "result": "no longer regulated"}, {"measurement": "peripheral blood and circulating eicosanoid concentrations", "setting": "[2]; Alox15-/- mice, day 8, LC-MS/MS", "result": "lost and no longer regulated"}, {"measurement": "leukocyte trafficking", "setting": "[2]; Alox15-/- mice, day 8, flow cytometry", "result": "no longer regulated"}, {"measurement": "protective actions of MTX", "setting": "[2]; mice lacking the ALOX15 enzyme", "result": "lost"}, {"measurement": "mediators from the DHA, n-3 DPA and EPA bioactive metabolomes including PDX, RvD1 and RvE3", "setting": "[3]", "result": "upregulation"}, {"measurement": "plasma SPM concentrations", "setting": "[3]", "result": "upregulates; also recorded: increase"}, {"measurement": "plasma 4S,14S-diHDHA concentration, Mean ± SEM", "setting": "[3]; n=6", "result": "2.82 ± 0.56"}, {"measurement": "plasma 5S,15S-diHETE concentration, Mean ± SEM", "setting": "[3]; n=6", "result": "5.32 ± 0.43"}, {"measurement": "plasma 7S,14S-diHDHA concentration, Mean ± SEM", "setting": "[3]; n=6", "result": "0.00 ± 0.00"}, {"measurement": "plasma 10S,17S-diHDPA concentration, Mean ± SEM", "setting": "[3]; n=6", "result": "0.55 ± 0.16"}, {"measurement": "plasma 13,14-dehydro-15-oxo-LXA4 concentration, Mean ± SEM", "setting": "[3]; n=6", "result": "82.74 ± 32.78"}, {"measurement": "plasma 14-oxo-MaR1 concentration, Mean ± SEM", "setting": "[3]; n=6", "result": "0.00 ± 0.00"}, {"measurement": "plasma 14S-diHDPA concentration, Mean ± SEM", "setting": "[3]; n=6", "result": "2.04 ± 0.41"}, {"measurement": "plasma 15-oxo-LXA4 concentration, Mean ± SEM", "setting": "[3]; n=6", "result": "3.78 ± 0.56"}, {"measurement": "plasma 15R-LXB4 concentration, Mean ± SEM", "setting": "[3]; n=6", "result": "2.13 ± 0.45"}, {"measurement": "plasma 17R-PD1 concentration, Mean ± SEM", "setting": "[3]; n=6", "result": "0.96 ± 0.39"}, {"measurement": "plasma 17R-RvD1 concentration, Mean ± SEM", "setting": "[3]; n=6", "result": "7.50 ± 1.97"}, {"measurement": "plasma 17R-RvD3 concentration, Mean ± SEM", "setting": "[3]; n=6", "result": "2.68 ± 0.67"}, {"measurement": "plasma 22-OH-MaR1 concentration, Mean ± SEM", "setting": "[3]; n=6", "result": "18.44 ± 4.31"}, {"measurement": "plasma 22-OH-PD1 concentration, Mean ± SEM", "setting": "[3]; n=6", "result": "7.86 ± 2.61"}, {"measurement": "plasma LXA4 concentration, Mean ± SEM", "setting": "[3]; n=6", "result": "0.55 ± 0.10"}, {"measurement": "plasma LXB4 concentration, Mean ± SEM", "setting": "[3]; n=6", "result": "13.42 ± 2.93"}, {"measurement": "plasma MaR1 concentration, Mean ± SEM", "setting": "[3]; n=6", "result": "24.53 ± 3.12"}, {"measurement": "plasma MaR1n-3 DPA concentration, Mean ± SEM", "setting": "[3]; n=6", "result": "1.09 ± 0.29"}, {"measurement": "plasma MaR2 concentration, Mean ± SEM", "setting": "[3]; n=6", "result": "0.00 ± 0.00"}, {"measurement": "plasma MaR2n-3 DPA concentration, Mean ± SEM", "setting": "[3]; n=6", "result": "7.97 ± 0.87"}, {"measurement": "plasma PD1 concentration, Mean ± SEM", "setting": "[3]; n=6", "result": "2.11 ± 0.24"}, {"measurement": "plasma PD1n-3 DPA concentration, Mean ± SEM", "setting": "[3]; n=6", "result": "0.34 ± 0.10"}, {"measurement": "plasma PD2n-3 DPA concentration, Mean ± SEM", "setting": "[3]; n=6", "result": "3.01 ± 1.23"}, {"measurement": "plasma PDx concentration, Mean ± SEM", "setting": "[3]; n=6", "result": "1.55 ± 0.22"}, {"measurement": "plasma RvD1 concentration, Mean ± SEM", "setting": "[3]; n=6", "result": "9.09 ± 1.13"}, {"measurement": "plasma RvD1n-3 DPA concentration, Mean ± SEM", "setting": "[3]; n=6", "result": "5.43 ± 1.10"}, {"measurement": "plasma RvD2 concentration, Mean ± SEM", "setting": "[3]; n=6", "result": "0.32 ± 0.13"}, {"measurement": "plasma RvD2n-3 DPA concentration, Mean ± SEM", "setting": "[3]; n=6", "result": "3.58 ± 1.16"}, {"measurement": "plasma RvD3 concentration, Mean ± SEM", "setting": "[3]; n=6", "result": "3.57 ± 1.38"}, {"measurement": "plasma RvD4 concentration, Mean ± SEM", "setting": "[3]; n=6", "result": "1.44 ± 0.59"}, {"measurement": "plasma RvD5 concentration, Mean ± SEM", "setting": "[3]; n=6", "result": "1.05 ± 0.22"}, {"measurement": "plasma RvD5n-3 DPA concentration, Mean ± SEM", "setting": "[3]; n=6", "result": "1.26 ± 0.24"}, {"measurement": "plasma RvD6 concentration, Mean ± SEM", "setting": "[3]; n=6", "result": "1.07 ± 0.21"}, {"measurement": "plasma RvE1 concentration, Mean ± SEM", "setting": "[3]; n=6", "result": "1.15 ± 0.32"}, {"measurement": "plasma RvE2 concentration, Mean ± SEM", "setting": "[3]; n=6", "result": "3.82 ± 1.15"}, {"measurement": "plasma RvE3 concentration, Mean ± SEM", "setting": "[3]; n=6", "result": "4.49 ± 0.23"}, {"measurement": "plasma RvT1 concentration, Mean ± SEM", "setting": "[3]; n=6", "result": "9.18 ± 2.50"}, {"measurement": "plasma RvT2 concentration, Mean ± SEM", "setting": "[3]; n=6", "result": "1.63 ± 0.35"}, {"measurement": "plasma RvT3 concentration, Mean ± SEM", "setting": "[3]; n=6", "result": "0.60 ± 0.24"}, {"measurement": "plasma RvT4 concentration, Mean ± SEM", "setting": "[3]; n=6", "result": "0.36 ± 0.15"}]}
